Reference: US20260035411A1, “CRYSTALLINE FORMS OF A PCSK9 INHIBITOR, COMPOSITIONS AND USES” (MERCK SHARP & DOHME LLC, priority 2022, published 2026)
“Also recorded” adds a separate entry of the source. Read-outs that look alike come from different tables or passages of the source.

Key:
[1] = XRPD analysis before and after adsorption/desorption cycles (physical stability, crystallinity); type: physicochemical
Experimental: X-ray powder diffraction studies are widely used to characterize molecular structures, crystallinity, and polymorphism. The X-ray powder diffraction patterns disclosed herein were generated on a Philips Analytical X′Pert PRO X-ray Diffraction System with PW3040/60 console. A PW3373/00 ceramic Cu LEF X-ray tube K-Alpha radiation was used as the source.
In addition, the chloride salt requires −20° C. storage to minimize chemical degradation while the acetate and caprate salts are less prone to degradation at higher temperatures. […] The stability of crystalline forms of the compounds of Formula I were characterized by XRPD under relative humidity conditions that simulate potential storage conditions.

[2] = Adsorption/desorption cycles under relative humidity (weight increase, hygroscopicity)

SMILES: COc1ccc(C[C@@H]2NC(=O)[C@H]([C@@H](C)O)NC(=O)[C@@H]3[C@@H]4CCN3C(=O)[C@@H]3Cc5cn(c6ccc(F)cc56)CCCCCCN(Cc5ccc(cc5)CCNC(=O)[C@]5(C)CCCN5C2=O)C(=O)CCC(=O)N[C@@H](C)C(=O)N[C@H](CNC(=O)CCCCC[N+](C)(C)C)C(=O)N[C@@H](Cc2cccc(c2)CNC(=O)CO4)C(=O)N3)cc1 [Acetate 4]
- crystallinity by XRPD after adsorption/desorption ([1]; 5-95-5% RH adsorption/desorption cycle (FIG. 31B, 33B)): loses crystallinity
- crystallinity by XRPD after adsorption/desorption ([1]; two adsorption/desorption cycles of 5-55% RH (FIG. 30B)): retains minimal crystallinity; also recorded: decrease in crystallinity
- hysteresis during the desorption step ([2]; 5-95% RH cycle (FIG. 31A)): Hysteresis is observed
- increase in weight ([2]; at 55% RH (FIG. 30A)): ~9%
- increase in weight ([2]; at 95% RH (FIG. 31A, 33A)): ~40%

SMILES: COc1ccc(C[C@@H]2NC(=O)[C@H]([C@@H](C)O)NC(=O)[C@@H]3[C@@H]4CCN3C(=O)[C@@H]3Cc5cn(c6ccc(F)cc56)CCCCCCN(Cc5ccc(cc5)CCNC(=O)[C@]5(C)CCCN5C2=O)C(=O)CCC(=O)N[C@@H](C)C(=O)N[C@H](CNC(=O)CCCCC[N+](C)(C)C)C(=O)N[C@@H](Cc2cccc(c2)CNC(=O)CO4)C(=O)N3)cc1 [Caprate 3]
- crystallinity by XRPD after adsorption/desorption [1]: maintains its crystallinity; also recorded: retains crystallinity
- increase in weight [2]: ~4.9%
- relative humidity by which H2O is readily absorbed [2]: 25-35 % RH
- relative humidity until which H2O is not lost [2]: 15 % RH

SMILES: COc1ccc(C[C@@H]2NC(=O)[C@H]([C@@H](C)O)NC(=O)[C@@H]3[C@@H]4CCN3C(=O)[C@@H]3Cc5cn(c6ccc(F)cc56)CCCCCCN(Cc5ccc(cc5)CCNC(=O)[C@]5(C)CCCN5C2=O)C(=O)CCC(=O)N[C@@H](C)C(=O)N[C@H](CNC(=O)CCCCC[N+](C)(C)C)C(=O)N[C@@H](Cc2cccc(c2)CNC(=O)CO4)C(=O)N3)cc1 [water-free Caprate 3]
- crystallinity by XRPD after adsorption/desorption [1]: retains crystallinity
- increase in weight [2]: ~9.4%

SMILES: COc1ccc(C[C@@H]2NC(=O)[C@H]([C@@H](C)O)NC(=O)[C@@H]3[C@@H]4CCN3C(=O)[C@@H]3Cc5cn(c6ccc(F)cc56)CCCCCCN(Cc5ccc(cc5)CCNC(=O)[C@]5(C)CCCN5C2=O)C(=O)CCC(=O)N[C@@H](C)C(=O)N[C@H](CNC(=O)CCCCC[N+](C)(C)C)C(=O)N[C@@H](Cc2cccc(c2)CNC(=O)CO4)C(=O)N3)cc1 [Caprate 5]
- crystallinity by XRPD after adsorption/desorption [1]: retains some crystallinity; also recorded: loses crystallinity; also recorded: decrease in crystallinity
- hysteresis during the desorption steps [2]: Slight hysteresis is observed
